{"source": "ChEMBL document CHEMBL6096732", "about": "(J Med Chem, 2025)", "key": {"[1]": {"target": "Programmed cell death 1 ligand 1 (Mus musculus) (UniProt Q9EP73)", "sequence (Q9EP73 whole entry)": "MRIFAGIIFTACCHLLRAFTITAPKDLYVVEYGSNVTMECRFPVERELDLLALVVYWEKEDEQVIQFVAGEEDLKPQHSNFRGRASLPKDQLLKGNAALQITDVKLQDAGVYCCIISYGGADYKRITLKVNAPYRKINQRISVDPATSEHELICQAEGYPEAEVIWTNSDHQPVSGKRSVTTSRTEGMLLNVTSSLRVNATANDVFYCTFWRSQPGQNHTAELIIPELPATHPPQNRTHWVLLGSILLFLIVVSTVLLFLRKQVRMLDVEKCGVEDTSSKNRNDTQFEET", "assay": "Induction of PD-L1 degradation in mouse B16-F10 cells assessed as decrease in PD-L1 protein level by measuring maximal efficacy at 10 uM incubated for 24 hrs by Western blot analysis relative to control", "format": "cell-based"}, "B16-F10 [2]": {"tested_on": "B16-F10", "assay": "Inhibition of cell migration in mouse B16-F10 cells assessed as wound area at 5 uM incubated for 24 hrs by wound healing assay (reference value: 50.36 +/- 1.68 %)", "format": "functional", "set-up": "scale not given: the % may be the effect or the level left"}, "[3]": {"assay": "Oral bioavailability in male Sprague-Dawley rat at 20 mg/kg measured after 12 hrs by LC-MS/MS analysis", "format": "ADME, organism-based", "settings": "in vivo"}, "B16-F10 [4]": {"tested_on": "B16-F10", "assay": "Induction of apoptosis in mouse B16-F10 cells assessed as increase in apoptotic cells at 20 uM incubated for 48 hrs by Annexin V-FITC/PI staining based flow cytometric analysis relative to control", "format": "functional"}, "[5]": {"assay": "AUMC (0 to t) in male Sprague-Dawley rat at 2 mg/kg, iv measured after 12 hrs by LC-MS/MS analysis", "format": "ADME, organism-based", "settings": "in vivo"}, "[6]": {"assay": "Apparent volume of distribution in male Sprague-Dawley rat at 20 mg/kg, po measured after 12 hrs by LC-MS/MS analysis", "format": "ADME, organism-based", "settings": "in vivo"}, "B16-F10 [7]": {"tested_on": "B16-F10", "assay": "Downregulation of PARP1 expression in mouse B16-F10 cells at 2 uM incubated for 24 hrs by Western blot analysis", "format": "functional, cell-based"}, "4T1 [8]": {"tested_on": "4T1", "assay": "Antitumor activity against mouse 4T1 cells implanted in female BALB/c mouse model assessed as induction of DNA damage by measuring increase in gamma-H2AX fluorescence intensity in tumor co-administrated orally with olaparib as once daily dose via gavage for 14 days by DAPI staining based immunofluorescence analysis", "format": "functional, cell-based", "settings": "route po, time 14.0 day"}, "[9]": {"assay": "Half-life in male Sprague-Dawley rat at 20 mg/kg, po measured after 12 hrs by LC-MS/MS analysis", "format": "ADME, organism-based", "settings": "in vivo"}, "4T1 [10]": {"tested_on": "4T1", "assay": "Downregulation of PARP1 expression in mouse 4T1 cells at 2 uM incubated for 24 hrs in presence of olaparib by Western blot analysis", "format": "functional, cell-based"}, "4T1 [11]": {"tested_on": "4T1", "assay": "Induction of DNA damage in mouse 4T1 cells assessed as increase in gamma-H2AX expression at 2 uM incubated for 24 hrs in presence of olaparib by Western blot analysis", "format": "functional, cell-based"}, "[12]": {"assay": "Clearance in male Sprague-Dawley rat at 2 mg/kg, iv measured after 12 hrs by LC-MS/MS analysis", "format": "ADME, organism-based", "settings": "in vivo"}, "B16-F10 [13]": {"tested_on": "B16-F10", "assay": "Induction of apoptosis in mouse B16-F10 cells assessed as increase in apoptotic cells at 5 uM incubated for 48 hrs by Annexin V-FITC/PI staining based flow cytometric analysis relative to control", "format": "functional"}, "[14]": {"target": "Programmed cell death 1 ligand 1 (Mus musculus) (UniProt Q9EP73)", "assay": "Induction of PD-L1 degradation in mouse B16-F10 cells assessed as decrease in PD-L1 protein level at 5 uM preincubated with MG132 for 4 hrs followed by compound addition and measured after 24 hrs by Western blot analysis", "format": "cell-based"}, "4T1 [15]": {"tested_on": "4T1", "assay": "Induction of DNA damage in mouse 4T1 cells assessed as upregulation of nuclear gamma-H2AX expression at 5 uM by DAPI staining based immunofluorescence analysis", "format": "functional, cell-based"}, "4T1 [16]": {"tested_on": "4T1", "assay": "Antitumor activity against mouse 4T1 cells implanted in female BALB/c mouse model assessed as tumor growth inhibition administrated orally as once daily dose via gavage for 14 days relative to control", "format": "functional", "settings": "route po; time 14 day"}, "Mus musculus [17]": {"tested_on": "Mus musculus", "assay": "In vivo induction of PD-L1 degradation in male C57BL/6 mouse model implanted with mouse B16-F10 cells assessed as decrease in PD-L1 protein expression in tumor at 50 mg/kg, po co-administered with NP-19 as once daily dosage via gavage for 14 days by Western blot analysis", "format": "functional, organism-based", "settings": "time 14.0 day"}, "4T1 [18]": {"tested_on": "4T1", "assay": "Effect on acetylated alpha-tubulin expression level in mouse 4T1 cells at 5 to 20 uM incubated for 24 hrs by Western blot analysis", "format": "functional, cell-based", "settings": "dose 5-20 µM"}, "[19]": {"target": "T1, Histone deacetylase 3 (Mus musculus) (UniProt O88895)", "T1 sequence (whole entry)": "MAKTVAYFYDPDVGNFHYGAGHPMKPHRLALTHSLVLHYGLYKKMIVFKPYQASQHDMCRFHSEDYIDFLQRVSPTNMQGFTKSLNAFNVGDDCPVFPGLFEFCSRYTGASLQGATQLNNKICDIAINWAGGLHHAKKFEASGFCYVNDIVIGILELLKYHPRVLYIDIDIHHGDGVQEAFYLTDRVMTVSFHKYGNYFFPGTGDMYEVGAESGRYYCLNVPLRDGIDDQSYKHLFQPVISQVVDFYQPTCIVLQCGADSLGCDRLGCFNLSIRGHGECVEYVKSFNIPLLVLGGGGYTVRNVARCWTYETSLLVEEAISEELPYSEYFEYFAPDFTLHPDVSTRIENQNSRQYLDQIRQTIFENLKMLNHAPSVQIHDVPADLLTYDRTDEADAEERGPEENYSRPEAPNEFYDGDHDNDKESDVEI", "assay": "In vivo inhibition of HDAC3 in male C57BL/6 mouse model implanted with mouse B16-F10 cells assessed as increase in acetylated histone H3 level at 50 mg/kg, po administered once daily via gavage for 14 days by Western blot analysis", "format": "functional, organism-based", "settings": "time 14.0 day"}, "B16-F10 [20]": {"tested_on": "B16-F10", "assay": "Downregulation of PARP1 expression in mouse B16-F10 cells at 2 uM incubated for 24 hrs in presence of olaparib by Western blot analysis", "format": "functional, cell-based"}, "Mus musculus [21]": {"tested_on": "Mus musculus", "assay": "Immunomodulatory activity in male C57BL/6 mouse model implanted with mouse B16-F10 cells assessed as increase in CD3+ CD8+ T cells in tumor at 50 mg/kg, po administered once daily for 14 days by flow cytometric analysis (reference value: 3.2 %)", "format": "functional", "settings": "time 14 day"}, "B16-F10 [22]": {"tested_on": "B16-F10", "assay": "Inhibition of cell migration in mouse B16-F10 cells assessed as wound area at 10 uM incubated for 24 hrs by wound healing assay (reference value: 50.36 +/- 1.68 %)", "format": "functional", "set-up": "scale not given: the % may be the effect or the level left"}, "[23]": {"target": "Protein deacetylase HDAC6 (Homo sapiens, UniProt Q9UBN7)", "sequence (Q9UBN7 whole entry)": "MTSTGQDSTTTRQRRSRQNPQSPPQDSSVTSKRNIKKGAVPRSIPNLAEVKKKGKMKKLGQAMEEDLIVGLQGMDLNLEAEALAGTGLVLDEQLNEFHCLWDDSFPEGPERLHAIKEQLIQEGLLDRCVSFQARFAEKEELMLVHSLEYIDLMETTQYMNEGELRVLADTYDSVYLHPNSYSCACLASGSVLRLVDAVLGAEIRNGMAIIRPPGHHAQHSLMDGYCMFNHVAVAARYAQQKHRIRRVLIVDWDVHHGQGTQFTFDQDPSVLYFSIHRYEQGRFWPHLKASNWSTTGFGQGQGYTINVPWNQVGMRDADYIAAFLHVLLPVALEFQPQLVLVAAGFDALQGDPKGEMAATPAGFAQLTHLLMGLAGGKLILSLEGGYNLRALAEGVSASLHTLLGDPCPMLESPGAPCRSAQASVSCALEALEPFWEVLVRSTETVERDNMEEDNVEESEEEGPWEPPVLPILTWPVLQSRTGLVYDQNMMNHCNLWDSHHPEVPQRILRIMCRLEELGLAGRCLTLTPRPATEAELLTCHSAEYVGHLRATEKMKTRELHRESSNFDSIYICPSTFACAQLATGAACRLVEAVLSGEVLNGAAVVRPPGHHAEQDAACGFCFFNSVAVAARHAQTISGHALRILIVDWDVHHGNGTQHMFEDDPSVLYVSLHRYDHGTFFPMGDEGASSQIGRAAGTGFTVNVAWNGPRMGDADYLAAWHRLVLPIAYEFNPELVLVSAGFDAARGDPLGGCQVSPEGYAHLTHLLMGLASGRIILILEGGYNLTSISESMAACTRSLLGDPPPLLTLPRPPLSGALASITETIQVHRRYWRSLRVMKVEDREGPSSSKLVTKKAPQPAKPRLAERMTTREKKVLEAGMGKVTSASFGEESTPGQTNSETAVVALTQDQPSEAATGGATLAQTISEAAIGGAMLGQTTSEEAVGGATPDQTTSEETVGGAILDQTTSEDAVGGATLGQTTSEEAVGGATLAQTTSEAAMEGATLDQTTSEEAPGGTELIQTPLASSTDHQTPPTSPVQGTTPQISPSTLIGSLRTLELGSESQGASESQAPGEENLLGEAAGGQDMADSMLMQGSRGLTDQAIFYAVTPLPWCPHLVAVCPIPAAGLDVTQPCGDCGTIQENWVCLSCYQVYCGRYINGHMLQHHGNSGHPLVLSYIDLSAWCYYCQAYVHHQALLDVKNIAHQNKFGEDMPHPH", "assay": "Inhibition of recombinant full length human HDAC6 using Boc-Lys(acetyl)-AMC as substrate preincubated for 1 hr followed by substrate addition and measured after 2 hrs by fluorescence based micro plate reader analysis"}, "B16-F10 [24]": {"tested_on": "B16-F10", "assay": "Inhibition of cell migration in mouse B16-F10 cells incubated for 24 to 48 hrs by crystal violet staining based microscopic analysis", "format": "functional", "settings": "dose 5-20 µM, time 24-48 hrs"}, "4T1 [25]": {"tested_on": "4T1", "assay": "Effect on acetylated H3K56 expression level in mouse 4T1 cells at 5 to 20 uM incubated for 24 hrs by Western blot analysis", "format": "functional, cell-based", "settings": "dose 5-20 µM"}, "[26]": {"assay": "Retention time of compound by HPLC analysis", "format": "physicochemical"}, "[27]": {"assay": "Ratio of AUC (0 to t) to AUC (0 to infinity) in male Sprague-Dawley rat at 2 mg/kg, iv measured after 12 hrs by LC-MS/MS analysis", "format": "ADME, organism-based", "settings": "in vivo"}, "[28]": {"assay": "AUC (0 to 12 hrs) in male Sprague-Dawley rat at 2 mg/kg, iv measured after 12 hrs by LC-MS/MS analysis", "format": "ADME, organism-based", "settings": "in vivo"}, "4T1 [29]": {"tested_on": "4T1", "assay": "Antitumor activity against mouse 4T1 cells implanted in female BALB/c mouse model assessed as decrease in PAPR1 fluorescence intensity in tumor co-administrated orally with olaparib as once daily dose via gavage for 14 days by DAPI staining based immunofluorescence analysis", "format": "functional, cell-based", "settings": "route po, time 14.0 day"}, "4T1 [30]": {"tested_on": "4T1", "assay": "Induction of DNA damage in mouse 4T1 cells assessed as increase in gamma-H2AX expression at 2 uM incubated for 24 hrs by Western blot analysis", "format": "functional, cell-based"}}, "note": "pIC50: −log10 of the molar value. Calls of active or inactive are those of the source. The rule behind the calls is not given here."}
{"compound": "CCCNNC(=O)c1ccc(Cn2c3ccccc3c3c(-c4ccccn4)nc4ccccc4c32)cc1", "values": [{"measurement": "Emax", "setting": "[1]", "value": 85, "unit": "%"}, {"measurement": "Activity", "setting": "B16-F10 [2]", "value": 35.33, "unit": "%"}, {"measurement": "bioavailability", "setting": "[3]", "value": 95.3, "unit": "%"}, {"measurement": "Activity", "setting": "B16-F10 [4]", "value": 60.7, "unit": "%"}, {"measurement": "AUMCt", "setting": "[5]", "value": 626.686, "unit": "hr.hr.ug/L"}, {"measurement": "Vz", "setting": "[6]", "value": 7.322, "unit": "L/kg"}, {"measurement": "Activity", "setting": "B16-F10 [7]", "value": "Active"}, {"measurement": "Activity", "setting": "4T1 [8]", "value": "Active"}, {"measurement": "half-life", "setting": "[9]", "value": 2.03, "unit": "h"}, {"measurement": "Activity", "setting": "4T1 [10]", "value": "Active"}, {"measurement": "Activity", "setting": "4T1 [11]", "value": "Active"}, {"measurement": "clearance", "setting": "[12]", "value": 39.6, "unit": "mL/min/kg"}, {"measurement": "Activity", "setting": "B16-F10 [13]", "value": 25, "unit": "%"}, {"measurement": "Activity", "setting": "[14]", "value": "Active"}, {"measurement": "Activity", "setting": "4T1 [15]", "value": "Active"}, {"measurement": "TGI", "setting": "4T1 [16]", "value": 41, "unit": "%"}, {"measurement": "Activity", "setting": "Mus musculus [17]", "value": "Active"}, {"measurement": "Activity", "setting": "4T1 [18]", "value": "inactive"}, {"measurement": "inhibition", "setting": "[19]", "value": "Active"}, {"measurement": "Activity", "setting": "B16-F10 [20]", "value": "Active"}, {"measurement": "Activity", "setting": "Mus musculus [21]", "value": 25, "unit": "%"}, {"measurement": "Activity", "setting": "B16-F10 [22]", "value": 10.25, "unit": "%"}, {"measurement": "pIC50", "setting": "[23]", "value": 5.09}, {"measurement": "inhibition", "setting": "B16-F10 [24]", "value": "Dose-dependent-effect"}, {"measurement": "Activity", "setting": "4T1 [25]", "value": "inactive"}, {"measurement": "Retention_time", "setting": "[26]", "value": 10.16, "unit": "min"}, {"measurement": "Ratio AUC", "setting": "[27]", "value": 99.95, "unit": "%"}, {"measurement": "AUC(0-t) at 12 h", "setting": "[28]", "value": 857, "unit": "ng·h/mL"}, {"measurement": "Activity", "setting": "4T1 [29]", "value": "Active"}, {"measurement": "Activity", "setting": "4T1 [30]", "value": "Active"}]}
